# Reference: patent US7713994B2 (Wyeth LLC, priority 2005, dated 2010)
# Target: T1, cyclin D1/cdk 4 enzyme (Homo sapiens, UniProt P11802)
# T1 construct: made in house; host or cells: Sf9 insect cells, recombinant baculovirus
# Test: CDK4 ELISA kinase assay (phospho-Rb ser 795 detection)
# Format: biochemical
# Conditions: In Vitro Enzyme Assay, cyclin D1/cdk 4, read-out: CDK4 IC50
# Method: • 1. High-binding ELISA microtiter plates (Costar) were coated with 40 μl of the kinase substrate (GST fusion of C-terminal fragment of the retinoblastoma susceptibility gene product) diluted to 10 μg/ml in tris-buffered saline (TBS), overnight at 4° C. • 2. Non-specific binding sites were blocked for 1 hour at 4° C. with Superblock in TBS (Pierce), and the plates rinsed with water. • 3. For the screen, 1.5 μl of test compound (200 μg/ml stock in 20% DMSO/20 mM HEPES, pH 7.5) was added to each well. Final dose of the test compound in the assay was 10 ug/ml. […] The kinase reaction (30 μl) was dispensed into each well. Reactions contained 200 μM ATP, 0.5 mg/ml bovine serum albumin (BSA; Sigma), and 0.5 μl partially purified cyclin D1/cdk 4 enzyme*. The enzyme complex is expressed in insect cells (Sf9) infected with recombinant baculovirus and partially purified using ammonium sulfate fractionation. Reaction volumes were adjusted to 30 μl with kinase assay buffer (50 mM HEPES, pH 7.5, 10 mM MgCl2, 5% glycerol, 10 mM 2-mercaptoethanol). • *: For CDK2 assay, 1.0 μl cyclin E/CDK2 enzyme (diluted 1:1000 in kinase assay buffer) was used. The enzyme is isolated from insect cells (Sf9) infected with recombinant baculovirus and partially purified using ammonium sulfate fractionation. For CDK1 assay, 0.08 μl cyclin B/CDK1 enzyme [New England BioLabs; the enzyme is isolated from insect cells (Sf9) infected with recombinant baculovirus carrying human cdc 2 and human cyclin B] was used.
# […] • 5. Plates were incubated at 30° C. for 1 hour. • 6. The reaction mixture was removed by aspiration and replaced with 250 μl TBS containing 0.1% Tween-20 and 5% nonfat dry milk (blocking buffer). The plates were incubated at 4° C. for 1 hour. • 7. The blocking buffer was removed and replaced with 50 μl of the primary antibody [anti-phospho-Rb ser 795 (New England BioLabs) diluted 1:1000 in blocking buffer]. Incubation was at 4° C. for 16-20 hours. • 8. The wells were rinsed 3 times with 250 μl of TBS containing 0.1% Tween-20 followed by the addition of 50 μl of secondary antibody [anti-rabbit IgG conjugated to horseradish peroxidase (Amersham Life Science) diluted 1:1000 in blocking buffer]. • 9. After a 1 hour incubation at room temperature, the wells were rinsed 3 times with 250 μl of TBS/0.1% Tween 20. • 10. TMB (3,3′,5,5′-tetramethylbenzidine dihydrochloride) substrate solution (100 μl; Pierce) was added to each well and the color development reaction allowed to proceed 5-10 minutes at room temperature with shaking. The reaction was stopped by the addition of 2N sulfuric acid (100 μl) and the absorbance values read at 450 nm in a microplate reader (Molecular Devices). Analysis of Results: • 1. The percentage of the absorbance value in wells containing the test compound relative to control wells (no test agent) was determined. • 2. IC50 values of selected compounds were determined from inhibition curves, after subtracting background values (no substrate).
# T1 sequence (P11802 whole entry, species assumed): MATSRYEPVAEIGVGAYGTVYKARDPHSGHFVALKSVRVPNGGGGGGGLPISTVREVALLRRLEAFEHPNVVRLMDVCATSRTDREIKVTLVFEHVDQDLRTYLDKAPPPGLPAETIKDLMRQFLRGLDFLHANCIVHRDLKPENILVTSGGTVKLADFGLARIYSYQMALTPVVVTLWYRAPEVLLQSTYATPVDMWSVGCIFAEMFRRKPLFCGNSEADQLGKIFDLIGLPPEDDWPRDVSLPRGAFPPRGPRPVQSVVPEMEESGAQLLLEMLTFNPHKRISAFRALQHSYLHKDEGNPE
# T1 sequence (P24385 whole entry partner, species assumed): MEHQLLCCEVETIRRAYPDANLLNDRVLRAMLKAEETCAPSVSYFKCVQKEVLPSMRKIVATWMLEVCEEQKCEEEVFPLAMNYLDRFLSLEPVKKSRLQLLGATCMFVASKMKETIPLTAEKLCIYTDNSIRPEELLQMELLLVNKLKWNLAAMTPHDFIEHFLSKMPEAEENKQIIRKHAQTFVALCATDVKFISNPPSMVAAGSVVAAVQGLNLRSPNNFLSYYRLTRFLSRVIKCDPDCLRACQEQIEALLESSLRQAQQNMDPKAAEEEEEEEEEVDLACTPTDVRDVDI
row,SMILES,IC50
1,"O=C1NC(=O)c2ccccc2C1=CNc1ccncc1 [Example 618, 4-(Pyridin-4-ylaminomethylene)-4H-isoquinoline-1,3-dione]",40.1 µM
2,"O=C1NC(=O)c2ccccc2C1=CNc1cccc2c(O)cccc12 [Example 619, 4-[(5-Hydroxy-naphthalen-1-ylamino)-methylene]-4H-isoquinoline-1,3-dione]",14.3 µM
3,"O=C1NC(=O)c2ccc(C=CCc3ccccc3)cc2C1=CNc1ccc(CN2CCCC2)cc1 [Example 622, 6-(3-Phenyl-propenyl)-4-[(4-pyrrolidin-1-ylmethyl-phenylamino)-methylene]-4H-isoquinoline-1,3-dione]",37.2 µM
4,"N#CCc1ccc(NC=C2C(=O)NC(=O)c3ccc(-c4cccc5ccccc45)cc32)cc1 [Example 623, {4-[(6-Naphthalen-1-yl-1,3-dioxo-2,3-dihydro-1H-isoquinolin-4-ylidenemethyl)-amino]-phenyl)-acetonitrile]",25.1 µM
5,"N#CCc1ccc(NC=C2C(=O)NC(=O)c3ccc(-c4ccc5ccccc5c4)cc32)cc1 [Example 624, {4-[(6-Naphthalen-2-yl-1,3-dioxo-2,3-dihydro-1H-isoquinolin-4-ylidenemethyl)-amino]-phenyl}-acetonitrile]",13 µM
6,"N#CCc1ccc(NC=C2C(=O)NC(=O)c3ccc(-c4cccc5cccnc45)cc32)cc1 [Example 625, {4-[(1,3-Dioxo-6-quinolin-8-yl-2,3-dihydro-1H-isoquinolin-4-ylidenemethyl)-amino]-phenyl}-acetonitrile]",14.8 µM
7,"N#CCc1ccc(NC=C2C(=O)NC(=O)c3ccc(-c4csc5ccccc45)cc32)cc1 [Example 628, {4-[(6-Benzo[b]thiophen-3-yl-1,3-dioxo-2,3-dihydro-1H-isoquinolin-4-ylidenemethyl)-amino]-phenyl}-acetonitrile]",33.6 µM
8,"N#CCc1ccc(NC=C2C(=O)NC(=O)c3ccc(-c4cc[nH]c4)cc32)cc1 [Example 631, (4-{[1,3-Dioxo-6-(1H-pyrrol-3-yl)-2,3-dihydro-1H-isoquinolin-4-ylidenemethyl]-amino}-phenyl)-acetonitrile]",4.2 µM
9,"NS(=O)(=O)c1ccc(CNC=C2C(=O)NC(=O)c3ccc(-c4cccc5cccnc45)cc32)cc1 [Example 633, 4-{[(1,3-Dioxo-6-quinolin-8-yl-2,3-dihydro-1H-isoquinolin-4-ylidenemethyl)-amino]-methyl}-benzenesulfonamide]",32.3 µM
10,"O=C1NC(=O)c2ccc(-c3cccc4ccccc34)cc2C1=CNCc1ccc(O)c(O)c1 [Example 640, 4-[(3,4-Dihydroxy-benzylamino)-methylene]-6-naphthalen-1-yl-4H-isoquinoline-1,3-dione]",21.9 µM
11,"N#CCc1ccc(NC=C2C(=O)NC(=O)c3ccc(C=Cc4ccccn4)cc32)cc1 [Example 648, (4-{[1,3-Dioxo-6-(2-pyridin-2-yl-vinyl)-2,3-dihydro-1H-isoquinolin-4-ylidenemethyl]-amino}-phenyl)-acetonitrile]",18.6 µM
12,"N#CCc1ccc(NC=C2C(=O)NC(=O)c3ccc(C=Cc4ccncc4)cc32)cc1 [Example 649, (4-{[1,3-Dioxo-6-(2-pyridin-4-yl-vinyl)-2,3-dihydro-1H-isoquinolin-4-ylidenemethyl]-amino}-phenyl)-acetonitrile]",20 µM
13,"N#CCc1ccc(NC=C2C(=O)NC(=O)c3ccc(C=Cc4ccccc4)cc32)cc1 [Example 650, {4-[(1,3-Dioxo-6-styryl-2,3-dihydro-1H-isoquinolin-4-ylidenemethyl)-amino]-phenyl}-acetonitrile]",16.6 µM
14,"NS(=O)(=O)c1ccc(CNC=C2C(=O)NC(=O)c3ccc(C=CCn4ccnc4)cc32)cc1 [Example 657, 4-({[6-(3-Imidazol-1-yl-propenyl)-1,3-dioxo-2,3-dihydro-1H-isoquinolin-4-ylidenemethyl]-amino}-methyl)-benzenesulfonamide]",2.2 µM
15,"O=C1NC(=O)c2ccc(C=CCN3CCNCC3)cc2C1=CNCc1ccc(O)c(O)c1 [Example 666, 4-[(3,4-Dihydroxy-benzylamino)-methylene]-6-(3-piperazin-1-yl-propenyl)-4H-isoquinoline-1,3-dione]",2.5 µM
16,"CN1CCN(c2ccc(NC=C3C(=O)NC(=O)c4ccc(-c5ccc6ccccc6c5)cc43)cc2)CC1 [Example 668, 4-{[4-(4-Methyl-piperazin-1-yl)-phenylamino]-methylene}-6-naphthalen-2-yl-4H-isoquinoline-1,3-dione]",21.9 µM
17,"CN1CCN(c2ccc(NC=C3C(=O)NC(=O)c4ccc(-c5cc6ccccc6s5)cc43)cc2)CC1 [Example 670, 6-Benzo[b]thiophen-2-yl-4-{[4-(4-methyl-piperazin-1-yl)-phenylamino]-methylene}-4H-isoquinoline-1,3-dione]",39.8 µM

# Further lines, results first:
row,IC50,SMILES
1,11.7 µM,"CN1CCN(c2ccc(NC=C3C(=O)NC(=O)c4ccc(C=Cc5ccc6ccccc6c5)cc43)cc2)CC1 [Example 674, 4-{[4-(4-Methyl-piperazin-1-yl)-phenylamino]-methylene}-6-(2-naphthalen-2-yl-vinyl)-4H-isoquinoline-1,3-dione]"
2,14.3 µM,"CN1CCN(c2ccc(NC=C3C(=O)NC(=O)c4ccc(C=Cc5ccccc5)cc43)cc2)CC1 [Example 677, 4-{[4-(4-Methyl-piperazin-1-yl)-phenylamino]-methylene}-6-styryl-4H-isoquinoline-1,3-dione]"
3,17.7 µM,"Cc1ncsc1C=Cc1ccc2c(c1)C(=CNc1ccc(N3CCN(C)CC3)cc1)C(=O)NC2=O [Example 681, 4-{[4-(4-Methyl-piperazin-1-yl)-phenylamino]-methylene}-6-[2-(4-methyl-thiazol-5-yl)-vinyl]-4H-isoquinoline-1,3-dione]"
4,32.9 µM,"COc1ccccc1-c1ccc2c(c1)C(=CNc1ccc(N3CCN(C)CC3)cc1)C(=O)NC2=O [Example 683, 6-(2-Methoxy-phenyl)-4-{[4-(4-methyl-piperazin-1-yl)-phenylamino]-methylene}-4H-isoquinoline-1,3-dione]"
5,12.4 µM,"CN1CCN(c2ccc(NC=C3C(=O)NC(=O)c4ccc(-c5ccccc5F)cc43)cc2)CC1 [Example 684, 6-(2-Fluoro-phenyl)-4-{[4-(4-methyl-piperazin-1-yl)-phenylamino]-methylene}-4H-isoquinoline-1,3-dione]"
6,6.4 µM,"CN1CCN(c2ccc(NC=C3C(=O)NC(=O)c4ccc(-c5cccc(C(=O)O)c5)cc43)cc2)CC1 [Example 686, 3-(4-{[4-(4-Methyl-piperazin-1-yl)-phenylamino]-methylene}-1,3-dioxo-1,2,3,4-tetrahydro-isoquinolin-6-yl)-benzoic acid]"
7,20.9 µM,"CN1CCN(c2ccc(NC=C3C(=O)NC(=O)c4ccc(-c5ccc(C(F)(F)F)cc5)cc43)cc2)CC1 [Example 687, 4-{[4-(4-Methyl-piperazin-1-yl)-phenylamino]-methylene}-6-(4-trifluoromethyl-phenyl)-4H-isoquinoline-1,3-dione]"
8,20.7 µM,"CN1CCN(c2ccc(NC=C3C(=O)NC(=O)c4ccc(-c5cccc(Cl)c5)cc43)cc2)CC1 [Example 690, 6-(3-Chloro-phenyl)-4-{[4-(4-methyl-piperazin-1-yl)-phenylamino]-methylene}-4H-isoquinoline-1,3-dione]"
9,30.7 µM,"Cc1ccc(-c2ccc3c(c2)C(=CNc2ccc(N4CCN(C)CC4)cc2)C(=O)NC3=O)cc1 [Example 692, 4-{[4-(4-Methyl-piperazin-1-yl)-phenylamino]-methylene}-6-p-tolyl-4H-isoquinoline-1,3-dione]"
